Among the data in patent US20260315464A1, “COMPOSITIONS, METHODS, AND SYSTEMS FOR MODULATING SPLICING OF MSH3” (REVIR THERAPEUTICS, INC., priority 2023, published 2026) are mrna remaining and EC50 values, retold here.

This test relates to MSH3. The test is described as follows: QPCR assay for levels of MSH3 upon compound treatment in HEK293T or AD293 cells (fold-change of MSH3 transcript, EC50 of MSH3 downregulation; total MSH3 exons 13/14, exons 20/21; Table 8). In kind it is cell-based. The note with it: for mrna remaining at 1 µM / mrna remaining at 10 µM: Homo sapiens, fold-change of the MSH3 transcript, normalized to GAPDH; for mrna remaining at 1 µM: 1 μM compound; for mrna remaining at 10 µM: 10 μM compound; for EC50: EC50 of MSH3 downregulation, XtalPi. As for the experimental part:
HEK293T or AD293 cells were treated with Compound 274 at 1 μM and […]. RNA, cDNA and qPCR was prepared using TaqMan Cells-to-CT Express kit (ThermoFisher Scientific). Taqman assays (ThermoFisher Scientific) were used for quantification of total MSH3 exons 13/14 (cat #4351372, ID #: Hs00988993_ml), total MSH3 exons 20/21 (cat #4351372, ID #: Hs00989000_ml), exon 13/PE14A (Fwd: 5′-[…]; Rev: 5′-[…]; Probe: 5′-[…]) and exon 20/PE21A (Fwd: 5′-[…]; Rev: 5′-[…]; Probe: 5′-[…]) mRNA expression. Taqman GAPDH (cat #4448489, ID #: Hs02758991_g1) was used as a reference for data normalization.

With `Cc1nn(C)nc1-c1cnc2c(c1)C(=O)N(c1ccc(N3C[C@@H](C)NC[C@@H]3C)nn1)C2` [Compound 613, 3-(2,5-dimethyl-2H-1,2,3-triazol-4-yl)-6-(6-((2S,5R)-2,5-dimethylpiperazin-1-yl)pyridazin-3-yl)-6,7-dihydro-5H-pyrrolo[3,4-b]pyridin-5-one], the mrna remaining at 1 µM worked out at 130% and the mrna remaining at 10 µM stood at 91%.
The like results for `Cc1nn(C)cc1-c1cc(F)c2c(c1)C(=O)N(c1ccc(OC3CC(C)(C)NC(C)(C)C3)nn1)C2` [Compound 276, 6-(1,3-dimethyl-1H-pyrazol-4-yl)-4-fluoro-2-(6-((2,2,6,6-tetramethylpiperidin-4-yl)oxy)pyridazin-3-yl)isoindolin-1-one] were, in that order, 103% and 38%.
`Cc1nn(C)nc1-c1cc(F)c2c(c1)C(=O)N(c1ccc(N3CCC(N(C)C)CC3)nn1)C2` [Compound 672, 6-(2,5-dimethyl-2H-1,2,3-triazol-4-yl)-2-(6-(4-(dimethylamino)piperidin-1-yl)pyridazin-3-yl)-4-fluoroisoindolin-1-one]: the mrna remaining at 1 µM turned out to be 95% and the mrna remaining at 10 µM is 74%.
The like results for `Cn1nc(Cl)c(-c2cc(F)c3c(c2)C(=O)N(c2ccc(N4CCN[C@@H](C(C)(C)C)C4)nn2)C3)n1` [Compound 637, (S)-2-(6-(3-(tert-butyl)piperazin-1-yl)pyridazin-3-yl)-6-(5-chloro-2-methyl-2H-1,2,3-triazol-4-yl)-4-fluoroisoindolin-1-one] were, in that order, 150% and 31%.
The like results for `CCN1CC2CN(c3ccc(N4Cc5c(F)cc(-c6nn(C)nc6C)cc5C4=O)nn3)CC2C1` (stereo not drawn) [Compound 663, 6-(2,5-dimethyl-2H-1,2,3-triazol-4-yl)-2-(6-(5-ethylhexahydropyrrolo[3,4-c]pyrrol-2(1H)-yl)pyridazin-3-yl)-4-fluoroisoindolin-1-one] were, in that order, 232% and 62%.
On the same counts, the results for `CN(c1ccc(N2Cc3ncc(-c4cnn(CC(C)(C)O)c4)cc3C2=O)nn1)[C@H]1C[C@]2(C)CC[C@](C)(C1)N2` [Compound 604, 6-(6-(((1R,3s,5S)-1,5-dimethyl-8-azabicyclo[3.2.1]octan-3-yl)(methyl)amino)pyridazin-3-yl)-3-(1-(2-hydroxy-2-methylpropyl)-1H-pyrazol-4-yl)-6,7-dihydro-5H-pyrrolo[3,4-b]pyridin-5-one] are 63% and 93%.
With `Cn1nc(Cl)c(-c2cnc3c(c2)C(=O)N(c2ccc(O[C@H]4C[C@]5(C)CC[C@](C)(C4)N5)nn2)C3)n1` [Compound 480, 3-(5-chloro-2-methyl-2H-1,2,3-triazol-4-yl)-6-(6-(((1R,3s,5S)-1,5-dimethyl-8-azabicyclo[3.2.1]octan-3-yl)oxy)pyridazin-3-yl)-6,7-dihydro-5H-pyrrolo[3,4-b]pyridin-5-one], the EC50 – broadly, the concentration needed to bring the measured effect to its halfway point – worked out at 363 nM; the mrna remaining at 1 µM was found to be 15%; the mrna remaining at 10 µM came out at 10%.
In the case of `Cc1nn(C)cc1-c1cnc2c(c1)C(=O)N(c1ccc(S[C@H]3C[C@]4(C)CC[C@](C)(C3)N4)nn1)C2` [Compound 490, 3-(1,3-dimethyl-1H-pyrazol-4-yl)-6-(6-(((1R,3s,5S)-1,5-dimethyl-8-azabicyclo[3.2.1]octan-3-yl)thio)pyridazin-3-yl)-6,7-dihydro-5H-pyrrolo[3,4-b]pyridin-5-one], the mrna remaining at 1 µM stood at 90% and the mrna remaining at 10 µM is 25%.
Take `Cc1nn(C)nc1-c1cc(F)c2c(c1)C(=O)N(c1ccc(N(C)[C@H]3C[C@]4(C)CC[C@](C)(C3)N4)nn1)C2` [Compound 294, 6-(2,5-dimethyl-2H-1,2,3-triazol-4-yl)-2-(6-(((1R,3s,5S)-1,5-dimethyl-8-azabicyclo[3.2.1]octan-3-yl)(methyl)amino)pyridazin-3-yl)-4-fluoroisoindolin-1-one]: it took 480 nM to reach a half-maximal effect (EC50), the mrna remaining at 1 µM amounted to 27% and the mrna remaining at 10 µM is 12%.
`Cc1nc(C)c(-c2cnc3c(c2)C(=O)N(c2cnc(N(C)C4CC(C)(C)NC(C)(C)C4)nn2)C3)s1` [Compound 195, 3-(2,4-dimethylthiazol-5-yl)-6-(3-(methyl(2,2,6,6-tetramethylpiperidin-4-yl)amino)-1,2,4-triazin-6-yl)-6,7-dihydro-5H-pyrrolo[3,4-b]pyridin-5-one]: the mrna remaining at 1 µM worked out at 59% and the mrna remaining at 10 µM was determined as 42%.
The like results for `Cc1nn(C)cc1-c1cc2c(cn1)CN(c1ccc(OC3CCC(C)(C)NC(C)(C)C3)nn1)C2=O` (stereo not drawn) [Compound 457, 6-(1,3-dimethyl-1H-pyrazol-4-yl)-2-(6-((2,2,7,7-tetramethylazepan-4-yl)oxy)pyridazin-3-yl)-2,3-dihydro-1H-pyrrolo[3,4-c]pyridin-1-one] were, in that order, 85% and 70%.
As for `Cc1cn(-c2cc(C#N)c3c(c2)C(=O)N(c2ccc(O[C@H]4C[C@]5(C)CC[C@](C)(C4)N5)nn2)C3)nn1` [Compound 591, 2-(6-(((1R,3s,5S)-1,5-dimethyl-8-azabicyclo[3.2.1]octan-3-yl)oxy)pyridazin-3-yl)-6-(4-methyl-1H-1,2,3-triazol-1-yl)-1-oxoisoindoline-4-carbonitrile], the midpoint of the response, the EC50, lay at 634 nM; the mrna remaining at 1 µM was determined as 109%; the mrna remaining at 10 µM amounted to 91%.
With `CN(c1ccc(N2Cc3ncc(-c4nn(C)nc4Cl)nc3C2=O)nn1)[C@H]1C[C@]2(C)CC[C@](C)(C1)N2` [Compound 627, 3-(5-chloro-2-methyl-2H-1,2,3-triazol-4-yl)-6-(6-(((1R,3s,5S)-1,5-dimethyl-8-azabicyclo[3.2.1]octan-3-yl)(methyl)amino)pyridazin-3-yl)-6,7-dihydro-5H-pyrrolo[3,4-b]pyrazin-5-one], the mrna remaining at 1 µM came out at 37% and the mrna remaining at 10 µM came out at 11%.
The like results for `Cn1nc(Cl)c(-c2cc(F)c3c(c2)C(=O)N(c2ccc(N4CC5(CNC5)C4)nn2)C3)n1` [Compound 670, 2-(6-(2,6-diazaspiro[3.3]heptan-2-yl)pyridazin-3-yl)-6-(5-chloro-2-methyl-2H-1,2,3-triazol-4-yl)-4-fluoroisoindolin-1-one] were, in that order, 92% and 44%.
As to `Cc1nn(C)nc1-c1cnc2c(c1)C(=O)N(c1ccc(N3CC4CC3CN4)nn1)C2` (stereo not drawn) [Compound 560, 6-(6-(2,5-diazabicyclo[2.2.1]heptan-2-yl)pyridazin-3-yl)-3-(2,5-dimethyl-2H-1,2,3-triazol-4-yl)-6,7-dihydro-5H-pyrrolo[3,4-b]pyridin-5-one], the mrna remaining at 1 µM is 81% and the mrna remaining at 10 µM was determined as 29%.
Take `Cn1nc(Cl)c(-c2cnc3c(n2)C(=O)N(c2ccc(O[C@H]4C[C@]5(C)CC[C@](C)(C4)N5)nn2)C3)n1` [Compound 503, 3-(5-chloro-2-methyl-2H-1,2,3-triazol-4-yl)-6-(6-(((1R,3s,5S)-1,5-dimethyl-8-azabicyclo[3.2.1]octan-3-yl)oxy)pyridazin-3-yl)-6,7-dihydro-5H-pyrrolo[3,4-b]pyrazin-5-one]: the mrna remaining at 1 µM is 70% and the mrna remaining at 10 µM stood at 18%.
On the same counts, the results for `Cn1cc(-c2ccc3c(c2)C(=O)N(c2ccc(N4CCN[C@@H](C(C)(C)C)C4)nn2)C3)cn1` [Compound 399, (S)-2-(6-(3-(tert-butyl)piperazin-1-yl)pyridazin-3-yl)-6-(1-methyl-1H-pyrazol-4-yl)isoindolin-1-one] are 65% and 43%.
On the same counts, the results for `Cn1cc(-c2cnc3c(c2)C(=O)N(c2ccc(OC4CC(C)(C)NC(C)(C)C4)nn2)C3)c(C(F)(F)F)n1` [Compound 176, 3-(1-methyl-3-(trifluoromethyl)-1H-pyrazol-4-yl)-6-(6-((2,2,6,6-tetramethylpiperidin-4-yl)oxy)pyridazin-3-yl)-6,7-dihydro-5H-pyrrolo[3,4-b]pyridin-5-one] are 94% and 110%.
Turning to `Cc1nn(C)nc1-c1cnc2c(n1)C(=O)N(c1ccc(OC3CC(C)(C)NC4(CCC4)C3)nn1)C2` (stereo not drawn) [Compound 500, 3-(2,5-dimethyl-2H-1,2,3-triazol-4-yl)-6-(6-((6,6-dimethyl-5-azaspiro[3.5]nonan-8-yl)oxy)pyridazin-3-yl)-6,7-dihydro-5H-pyrrolo[3,4-b]pyrazin-5-one], the mrna remaining at 1 µM was 101% and the mrna remaining at 10 µM was found to be 22%.
The like results for `Cc1nn(C)cc1-c1cnc2c(c1)C(=O)N(c1cnc(N(C)[C@H]3C[C@]4(C)CC[C@](C)(C3)N4)nn1)C2` [Compound 175, 3-(1,3-dimethyl-1H-pyrazol-4-yl)-6-(3-(((1R,3s,5S)-1,5-dimethyl-8-azabicyclo[3.2.1]octan-3-yl)(methyl)amino)-1,2,4-triazin-6-yl)-6,7-dihydro-5H-pyrrolo[3,4-b]pyridin-5-one] were, in that order, 93% and 70%.
Regarding `Cn1ncc(-c2cnc3c(n2)C(=O)N(c2ccc(O[C@H]4C[C@]5(C)CC[C@](C)(C4)N5)nn2)C3)n1` [Compound 498, 6-(6-(((1R,3s,5S)-1,5-dimethyl-8-azabicyclo[3.2.1]octan-3-yl)oxy)pyridazin-3-yl)-3-(2-methyl-2H-1,2,3-triazol-4-yl)-6,7-dihydro-5H-pyrrolo[3,4-b]pyrazin-5-one], the mrna remaining at 1 µM is 67% and the mrna remaining at 10 µM came to 52%.
